One assay deals with human STING (Homo sapiens, UniProt Q86WV6). The assay is described as follows: Fluorescence Thermal Shift assay (hSTING FTS binding assay). The following applies: STING 0.1 mg/ml, 20 min preincubation, SyproOrange. The procedure: Compounds of the present invention were tested for binding to human STING in Fluorescence Thermal Shift assay. STING was preincubated with the compounds for 20 minutes in 50 mM Hepes, 150 mM NaCl, pH 7.5 in 16 μl volume, following by adding 4 μl of SyproOrange dye dilution (ThermoFisher, cat no. S-6651). Final STING concentration was 0.1 mg/ml. Thermal unfolding was performed in Real-Time PCR QuantStudio 6 Flex System (Applied Biosystems), from 25 to 99° C., with continuous ramp mode and ramp rate 0.033° C./s. The data were analyzed using Protein Thermal Shift Software (ThermoFisher).

For assay [1], the system named is interferon regulatory factor (IRF) pathway in THP-1 dual cells. The assay is described as follows: THP-1 Dual reporter assay, IRF pathway (luciferase). The class given is cell-based. The following applies: Homo sapiens, THP1-Dual; 18 h stimulation, luminescence. The procedure: (§1) Compounds of the present invention were tested for their activity using THP-1 dual cells (Invivogen, cat no. thpd-nfis) allowing for simultaneous study of NF-κB pathway and the interferon regulatory factor (IRF) pathway. THP-1 dual cells contain luciferase reporter gene under the control of an ISG54 (interferon-stimulated gene) minimal promoter in conjunction with five interferon-stimulated response elements and a secreted embryonic alkaline phosphatase reporter gene under the control an IFN (interferon)-β minimal promoter fused to five copies of the NF-κB consensus transcriptional response element with three copies of the c-Rel binding site. Following 18 h of stimulation with STING agonist, medium was collected and transferred onto fresh cell culture plate. To verify activity of the IRF pathway, luminescence activity was measured with standard laboratory plate reader immediately after addition 10 μl of the medium to 50 μl (or 40 μl) of luminescence reagent (Invivogen, cat. No. rep-qlc2). To verify activity of NF-κB pathway, 20 μl (or 10 μl) of the medium was mixed with 80 μl of a detection medium (Invivogen, cat. No. rep-qb2) and incubated for 2 hours (or 1 hour) at 37° C. in a humidified atmosphere containing 5% CO2. Next, absorbance at 630 nm (or 655 nm) was recorded using standard laboratory plate reader.
For orientation: Reporter assays use an easily measured gene product as a stand-in for the process of interest.

Assay [2] concerns NF-κB pathway in THP-1 dual cells. The assay is described as follows: THP-1 Dual reporter assay, NF-κB pathway (SEAP). The following applies: Homo sapiens, THP1-Dual; 18 h stimulation, absorbance; read-out: THP1 Dual EC50 (μM) NFkB. The class given is cell-based. As for the experimental part:
as §1

human STING, sequence (Q86WV6 whole entry H232R): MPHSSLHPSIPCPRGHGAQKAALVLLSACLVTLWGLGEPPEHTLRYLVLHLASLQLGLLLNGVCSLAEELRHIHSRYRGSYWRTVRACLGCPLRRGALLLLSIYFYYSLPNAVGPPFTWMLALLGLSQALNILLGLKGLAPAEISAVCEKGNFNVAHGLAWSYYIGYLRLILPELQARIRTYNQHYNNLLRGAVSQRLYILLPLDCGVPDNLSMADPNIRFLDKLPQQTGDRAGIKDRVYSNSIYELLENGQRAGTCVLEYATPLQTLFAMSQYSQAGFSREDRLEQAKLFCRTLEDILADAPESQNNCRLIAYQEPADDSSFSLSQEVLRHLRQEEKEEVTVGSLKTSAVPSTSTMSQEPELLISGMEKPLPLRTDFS

One may read the EC50 as the midpoint of the concentration-response curve. As to `Cc1cc(CN(Cc2cn(C3CC3)c3cc(F)c(F)cc3c2=O)[C@H]2CCCN(c3cccnc3)C2)ccn1` [Example 12, 1-cyclopropyl-6,7-difluoro-3-({[(2-methylpyridin-4-yl)methyl][(3S)-1-(pyridin-3-yl)piperidin-3-yl]amino}methyl)-1,4-dihydroquinolin-4-one], the “hSTING FTS binding assay (ΔT C.°)” value on human STING is “++ (ΔTm>10° C.)”. Further, the EC50 in assay [1] and in assay [2] was not above 1 µM throughout.

Consider `Cc1cc(CN(Cc2cn(C)c3ccccc3c2=O)[C@H]2CCCN(c3ccccn3)C2)ccn1` [Example 13, 1-methyl-3-({[(2-methylpyridin-4-yl)methyl][(3S)-1-(pyridin-2-yl)piperidin-3-yl]amino}methyl)-1,4-dihydroquinolin-4-one], for which the “hSTING FTS binding assay (ΔT C.°)” value at human STING is “+ (ΔTm<10° C.)”. Further, the EC50 in assay [1] and in assay [2] was 1 to 10 µM throughout.

With `Cc1cc(CN(Cc2cn(C)c3ccccc3c2=O)[C@H]2CCCN(c3ccc([N+](=O)[O-])nc3)C2)ccn1` [Example 14, 1-methyl-3-({[(2-methylpyridin-4-yl)methyl][(3S)-1-(6-nitropyridin-3-yl)piperidin-3-yl]amino}methyl)-1,4-dihydroquinolin-4-one], the “hSTING FTS binding assay (ΔT C.°)” value on human STING is listed as “+ (ΔTm<10° C.)”. Also, the EC50 was 1 to 10 µM in assay [1] and not below 10 µM in assay [2].

Turning to `Cc1cc(CN(Cc2cn(C)c3ccccc3c2=O)[C@H]2CCCN(c3ccncc3Br)C2)ccn1` [Example 15, 3-({[(3S)-1-(3-bromopyridin-4-yl)piperidin-3-yl][(2-methylpyridin-4-yl)methyl]amino}methyl)-1-methyl-1,4-dihydroquinolin-4-one], the “hSTING FTS binding assay (ΔT C.°)” value on human STING was “+ (ΔTm<10° C.)”. The EC50 in assay [1] and in assay [2] was 1 to 10 µM in each case.

Regarding `Cc1cc(CN(Cc2cn(C)c3ccccc3c2=O)[C@H]2CCCN(c3ccc(F)nc3)C2)ccn1` [Example 16, 3-({[(3S)-1-(6-fluoropyridin-3-yl)piperidin-3-yl][(2-methylpyridin-4-yl)methyl]amino}methyl)-1-methyl-1,4-dihydroquinolin-4-one], the “hSTING FTS binding assay (ΔT C.°)” value at human STING is recorded as “+ (ΔTm<10° C.)”. Also, the EC50 in assay [1] and in assay [2] was 1 to 10 µM in each case.

For the compound `Cc1cc(CN(Cc2cn(C)c3cc(N4CCN(C)CC4)ccc3c2=O)[C@H]2CCCN(c3cccnc3)C2)ccn1` [Example 18, 1-methyl-7-(4-methylpiperazin-1-yl)-3-({[(2-methylpyridin-4-yl)methyl][(3S)-1-(pyridin-3-yl)piperidin-3-yl]amino}methyl)-1,4-dihydroquinolin-4-one], the “hSTING FTS binding assay (ΔT C.°)” value on human STING was “++ (ΔTm>10° C.)”. Moreover, the 50% effective concentration (EC50) in assay [1] and in assay [2] was not above 1 µM throughout.

As for `COc1cc(N2CCC[C@H](N(Cc3ccnc(C)c3)Cc3cn(C)c4ccccc4c3=O)C2)ccn1` [Example 20, 3-({[(3S)-1-(2-methoxypyridin-4-yl)piperidin-3-yl][(2-methylpyridin-4-yl)methyl]amino}methyl)-1-methyl-1,4-dihydroquinolin-4-one], at human STING, the “hSTING FTS binding assay (ΔT C.°)” value was “+ (ΔTm<10° C.)”. For the same compound, the EC50 in assay [1] and in assay [2] was not below 10 µM throughout.

Consider `CCc1cc(CN(Cc2cn(C)c3ccccc3c2=O)C2CCCN(c3cccnc3)C2)ccn1` (stereo not drawn) [Example 21, 3-({[(2-ethylpyridin-4-yl)methyl][1-(pyridin-3-yl)piperidin-3-yl]amino}methyl)-1-methyl-1,4-dihydroquinolin-4-one], for which the “hSTING FTS binding assay (ΔT C.°)” value at human STING is “+ (ΔTm<10° C.)”. Besides, the EC50 in assay [1] and in assay [2] was not below 10 µM in each case.

With `Cc1cc(CN(Cc2cn(C)c3ccccc3c2=O)[C@H]2CCCN(c3cc(=O)[nH]cn3)C2)ccn1` [Example 22, 1-methyl-3-({[(2-methylpyridin-4-yl)methyl][(3S)-1-(6-oxo-1,6-dihydropyrimidin-4-yl)piperidin-3-yl]amino}methyl)-1,4-dihydroquinolin-4-one], the “hSTING FTS binding assay (ΔT C.°)” value on human STING is “++ (ΔTm>10° C.)”. For the same compound, the EC50 in assay [1] and in assay [2] was not below 10 µM throughout.

Regarding `Cc1cc(CN(Cc2cn(C)c3cc(Br)ccc3c2=O)[C@H]2CCCN(c3cccnc3)C2)ccn1` [Example 23, 7-bromo-1-methyl-3-({[(2-methylpyridin-4-yl)methyl][(3S)-1-(pyridin-3-yl)piperidin-3-yl]amino}methyl)-1,4-dihydroquinolin-4-one], the “hSTING FTS binding assay (ΔT C.°)” value at human STING was “++ (ΔTm>10° C.)”. Also, the EC50 in assay [1] and in assay [2] was not above 1 µM each time.

Regarding `Cc1cc(CN(Cc2cn(C)c3ccccc3c2=O)[C@@H]2CN(c3cccnc3)CC[C@H]2O)ccn1` [Example 24, 3-({[(3R,4R)-4-hydroxy-1-(pyridin-3-yl)piperidin-3-yl][(2-methylpyridin-4-yl)methyl]amino}methyl)-1-methyl-1,4-dihydroquinolin-4-one], the “hSTING FTS binding assay (ΔT C.°)” value at human STING is listed as “+ (ΔTm<10° C.)”. The EC50 in assay [1] and in assay [2] was not below 10 µM in each case.

Consider `Cc1cc(CN(Cc2cn(C)c3cc(Cl)c(F)cc3c2=O)[C@H]2CCCN(c3cccnc3)C2)ccn1` [Example 25, 7-chloro-6-fluoro-1-methyl-3-({[(2-methylpyridin-4-yl)methyl][(3S)-1-(pyridin-3-yl)piperidin-3-yl]amino}methyl)-1,4-dihydroquinolin-4-one], for which the “hSTING FTS binding assay (ΔT C.°)” value on human STING was “++ (ΔTm>10° C.)”. Further, the EC50 in assay [1] and in assay [2] was not above 1 µM in each case.

As to `Cc1cc(CN(Cc2cn(C)c3ccccc3c2=O)[C@H]2C[C@H](F)CN(c3cccnc3)C2)ccn1` [Example 26, 3-({[(3S,5S)-5-fluoro-1-(pyridin-3-yl)piperidin-3-yl][(2-methylpyridin-4-yl)methyl]amino}methyl)-1-methyl-1,4-dihydroquinolin-4-one], the “hSTING FTS binding assay (ΔT C.°)” value on human STING was “++ (ΔTm>10° C.)”. Also, the EC50 in assay [1] and in assay [2] was not above 1 µM in each case.

For `Cc1cc(CN(Cc2cn(C)c3ccccc3c2=O)[C@H]2C[C@@H](C)CN(c3cccnc3)C2)ccn1` [Example 27, 1-methyl-3-({[(3S,5R)-5-methyl-1-(pyridin-3-yl)piperidin-3-yl][(2-methylpyridin-4-yl)methyl]amino}methyl)-1,4-dihydroquinolin-4-one], the “hSTING FTS binding assay (ΔT C.°)” value at human STING is “+ (ΔTm<10° C.)”. Moreover, the EC50 in assay [1] and in assay [2] was not below 10 µM throughout.

Take `COc1cc(CN(Cc2cn(C3CC3)c3cc(Cl)c(F)cc3c2=O)[C@H]2CCCN(c3cccnc3)C2)ccn1` [Example 28, 7-chloro-1-cyclopropyl-6-fluoro-3-({[(2-methoxypyridin-4-yl)methyl][(3S)-1-(pyridin-3-yl)piperidin-3-yl]amino}methyl)-1,4-dihydroquinolin-4-one]: the “hSTING FTS binding assay (ΔT C.°)” value at human STING is given as “++ (ΔTm>10° C.)”. In addition, the EC50 in assay [1] and in assay [2] was not above 1 µM each time.

Turning to `COC(=O)C1CCN(c2ccc3c(=O)c(CN(Cc4ccnc(C)c4)[C@H]4CCCN(c5cccnc5)C4)cn(C)c3c2)CC1` [Example 29, Methyl 1-[1-methyl-3-({[(2-methylpyridin-4-yl)methyl][(3S)-1-(pyridin-3-yl)piperidin-3-yl]amino}methyl)-4-oxo-1,4-dihydroquinolin-7-yl]piperidine-4-carboxylate], the “hSTING FTS binding assay (ΔT C.°)” value on human STING is listed as “++ (ΔTm>10° C.)”. Besides, the EC50 in assay [1] and in assay [2] was not above 1 µM in each case.

The values above are taken from patent US12344606B2, “Next-generation modulators of stimulator of interferon genes (STING)” (RYVU THERAPEUTICS S.A., priority 2019, dated 2025).
